Publication PMC12042053, “Activation and Allostery in a Fungal SAMHD1 Hydrolase: An Evolutionary Blueprint for dNTP Catabolism” (JACS Au, 2025)

Assays:
Ri SAMHD1 [1] = biological target: T1, Ri SAMHD1 (Rhizophagus irregularis, UniProt A0A015K8Z8); experiment: nucleotide-induced tetramerization, glutaraldehyde cross-linking and SDS-PAGE; type: binding; details: monomer, 2 μM, pH 6.5, allosteric
T1 construct: gene RirG_017260; full length (no SAM domain), N-terminal His6-tag, pET28a(+), expressed in E. coli T7 Express in M9 medium with Fe or Mn; purified as monomer and tetramer; crystal model residues 11-451

Ri SAMHD1 [2] = biological target: T1, Ri SAMHD1; experiment: X-ray crystal structure, […] Å; type: binding; details: M9-Mn protein, excess Mn, 5 mM GTP; allosteric site at interface of three subunits; Ca ion bound
Ri SAMHD1 [3] = biological target: T1, Ri SAMHD1; experiment: EPR of mixed-valent diiron cofactor; type: binding; details: M9-Fe protein 0.5 mM, ascorbate-reduced, 2.5 mM nucleotide, O2-free; active site
Ri SAMHD1 [4] = biological target: T1, Ri SAMHD1; experiment: steady-state hydrolysis, HPLC […] nm; type: biochemical; details: M9-Fe tetramer, 0.25 μM, 1 mM Mn, 5 mM dithionite, O2-free, fit with substrate/product inhibition, suggested allosteric, second site
Ri SAMHD1 [5] = biological target: T2, Ri SAMHD1 (Rhizophagus irregularis, UniProt A0A015K8Z8, D34A); experiment: nucleotide-induced tetramerization, glutaraldehyde cross-linking and SDS-PAGE; type: binding; details: monomer, 2 μM, 1 mM Mn, pH 6.5; allosteric, cooperative
T2 construct: gene RirG_017260; full length (no SAM domain), N-terminal His6-tag, pET28a(+), expressed in E. coli T7 Express in M9 medium with Fe or Mn; purified as monomer and tetramer; crystal model residues 11-451
T2 sequence (A0A015K8Z8 entry or part of it D34A): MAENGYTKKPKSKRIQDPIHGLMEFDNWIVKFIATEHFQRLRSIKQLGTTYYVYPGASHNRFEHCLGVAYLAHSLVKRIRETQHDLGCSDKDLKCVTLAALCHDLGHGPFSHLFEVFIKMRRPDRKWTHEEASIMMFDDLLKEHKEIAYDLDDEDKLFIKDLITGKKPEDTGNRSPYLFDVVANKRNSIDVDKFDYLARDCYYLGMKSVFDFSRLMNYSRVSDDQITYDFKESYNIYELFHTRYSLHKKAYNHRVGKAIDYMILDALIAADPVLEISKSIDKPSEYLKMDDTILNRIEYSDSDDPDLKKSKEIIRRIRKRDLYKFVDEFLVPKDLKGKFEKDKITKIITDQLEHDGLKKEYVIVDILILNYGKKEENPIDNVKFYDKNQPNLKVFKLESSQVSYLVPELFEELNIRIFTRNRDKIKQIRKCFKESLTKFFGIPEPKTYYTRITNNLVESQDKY

Ri SAMHD1 [6] = biological target: T3, Ri SAMHD1 (Rhizophagus irregularis, UniProt A0A015K8Z8, R42A); experiment: as above; type: binding; details: monomer, 2 μM, 1 mM Mn, pH 6.5; allosteric, cooperative
T3 construct: gene RirG_017260; full length (no SAM domain), N-terminal His6-tag, pET28a(+), expressed in E. coli T7 Express in M9 medium with Fe or Mn; purified as monomer and tetramer; crystal model residues 11-451
T3 sequence (A0A015K8Z8 entry or part of it R42A): as the sequence (A0A015K8Z8 entry or part of it D34A) above, with A34D, R42A counted along it

[7] = biological target: SAMHD1 protein from Rhizophagus irregularis, wild type (Rhizophagus irregularis)
purified protein = substrate: Nc1nc2c(ncn2[C@H]2C[C@H](O)[C@@H](COP(=O)(O)OP(=O)(O)OP(=O)(O)O)O2)c(=O)[nH]1; experiment: purified protein; type: biochemical, Rhizophagus irregularis; details: M9-Fe tetramer, 0.25 μM, 1 mM Mn, 5 mM dithionite, O2-free; fit with substrate/product inhibition

How did the EC50 (Ri SAMHD1 [1]; Mn) turn out when `Nc1nc2c(ncn2[C@@H]2O[C@H](COP(=O)(O)OP(=O)(O)OP(=O)(O)O)[C@@H](O)[C@H]2O)c(=O)[nH]1` [GTP] was run?
The EC50 was 31 ± 2 µM.

And the “X-ray crystal structure, 2.27 Å” value (Ri SAMHD1 [2])?
The value was “only one nucleotide (GTP) is positioned within the interface of three subunits”.

With `Nc1ncnc2c1ncn2[C@H]1C[C@H](O)[C@@H](COP(=O)(O)OP(=O)(O)OP(=O)(O)O)O1` [dATP] as the molecule, how does the “EPR of mixed-valent diiron cofactor” value (Ri SAMHD1 [3]) read?
The value was “Addition of nonguanine-containing dNTPs (dATP, dCTP, and dTTP) increased the signal rhombicity”.

Which “EPR of mixed-valent diiron cofactor” value (Ri SAMHD1 [3]) does the source give for `Nc1ccn([C@H]2C[C@H](O)[C@@H](COP(=O)(O)OP(=O)(O)OP(=O)(O)O)O2)c(=O)n1` [dCTP] here?
The value was “Addition of nonguanine-containing dNTPs (dATP, dCTP, and dTTP) increased the signal rhombicity”.

For `Nc1nc2c(ncn2[C@H]2C[C@H](O)[C@@H](COP(=O)(O)OP(=O)(O)OP(=O)(O)O)O2)c(=O)[nH]1` [dGTP], which EC50 (Ri SAMHD1 [1]; 1 mM Mn) is on record?
The EC50 was 21 ± 3 µM.

And the “apparent KI” value (Ri SAMHD1 [4])?
The value was 301 ± 24 µM.

And the EC50 (Ri SAMHD1 [5])?
Its EC50 is 235 ± 5 µM.

What about the EC50 (Ri SAMHD1 [6]) of the same molecule?
Its EC50 is 605 ± 9 µM.

For `Cc1cn([C@H]2C[C@H](O)[C@@H](COP(=O)(O)OP(=O)(O)OP(=O)(O)O)O2)c(=O)[nH]c1=O` [dTTP], which “EPR of mixed-valent diiron cofactor” value (Ri SAMHD1 [3]) is on record?
Its value is “Addition of nonguanine-containing dNTPs (dATP, dCTP, and dTTP) increased the signal rhombicity”.

With “SAMHD1 protein from Rhizophagus irregularis, wild type (enzyme)” as the molecule, how does the apparent dNTP hydrolysis rates of the monomeric form on addition of GTP [7] read?
Its apparent dNTP hydrolysis rates of the monomeric form on addition of GTP is under 2.4 fold.

B1: Ri SAMHD1 (Rhizophagus irregularis DAOM 197198w) (protein)
chain: MAENGYTKKPKSKRIQDPIHGLMEFDNWIVKFIDTEHFQRLRSIKQLGTTYYVYPGASHNRFEHCLGVAYLAHSLVKRIRETQHDLGCSDKDLKCVTLAALCHDLGHGPFSHLFEVFIKMRRPDRKWTHEEASIMMFDDLLKEHKEIAYDLDDEDKLFIKDLITGKKPEDTGNRSPYLFDVVANKRNSIDVDKFDYLARDCYYLGMKSVFDFSRLMNYSRVSDDQITYDFKESYNIYELFHTRYSLHKKAYNHRVGKAIDYMILDALIAADPVLEISKSIDKPSEYLKMDDTILNRIEYSDSDDPDLKKSKEIIRRIRKRDLYKFVDEFLVPKDLKGKFEKDKITKIITDQLEHDGLKKEYVIVDILILNYGKKEENPIDNVKFYDKNQPNLKVFKLESSQVSYLVPELFEELNIRIFTRNRDKIKQIRKCFKESLTKFFGIPEPKTYYTRITNNLVESQDKY
notes: full length (no SAM domain), N-terminal His6-tag, pET28a(+), expressed in E. coli T7 Express in M9 medium with Fe or Mn; purified as monomer and tetramer; crystal model residues 11-451
How did the Km (purified protein) turn out when B1 was run?
The Km was 11 ± 3 µM.
